The subject of one assay is HNT-34 cells. The assay is described as follows: Anti-proliferation 72-hour CTG assay, HNT-34. The assay is classed as cell-based. Conditions: Homo sapiens. On the procedure: (§1) A plethora of AML cell lines were treated with serial dilutions of Compound D. IC50 value of the anti-proliferation effect of Compound D (as determined in 72-hour CTG assays) in each cell line is summarized in Table 1.

The next assay deals with OCI-AML2 cells. Put plainly: Anti-proliferation 72-hour CTG assay, OCI-AML2. The assay is classed as cell-based. Conditions: Homo sapiens; OCI-AML2, 72-hour CTG assay; read-out: IC50 of the anti-proliferative effect. On the procedure: as §1
For the next assay, the system named is KASUMI-1 cells. Put plainly: Apoptosis (caspase 3/7 activation), Kasumi-1. The format is cell-based, human.
Another assay deals with ATF4. Put plainly: ATF4 protein induction, western blot, HNT-34. The note with it: HNT-34, 10 nM Compound D. The format is cell-based, human. (In general: A western blot detects proteins with antibodies after separation by electrophoresis.)
Another assay has as its system PARP. Put plainly: PARP cleavage, western blot, HNT-34. The format is cell-based, human. The note with it: HNT-34, 10 nM Compound D.
Assay [1] has as its system p-eIF2α, ATF4, ATF3, CHOP/DDIT3, cleaved Caspases. Put plainly: UPR / ATF4 pathway and apoptosis markers in U937 cells (wild type and CRISPR knockouts). The format is cell-based, human. Conditions: for ATF4 pathway and apoptosis: 4 μM. From the text:
PERK, one of the four eIF2α, kinases, was knocked out in U937 cells by CRISPR-mediated gene editing using PERK−/− Construct 1 or PERK−/− Construct 2.
GCN2, one of the four eIF2α, kinases, was knocked out in U937 cells by CRISPR-mediated gene editing using GCN2 CRISPR Construct 1 or GCN2 CRISPR Construct 4.

Another assay has as its target IKZF1 (Homo sapiens, UniProt Q13422+Q96SW2). The note with it: NB4 cell line.
In the next assay the target is GSPT1 (Homo sapiens, UniProt P15170+Q96SW2). The assay is described as follows: GSPT1 protein reduction, western analysis, Kasumi-1. The format is cell-based. On the set-up: reduction in GSPT1 protein level was evaluated in human normal PBMCs; endogenous in cells; host or cells: primary PBMCs from normal donors (ID 4328, 4379) and AML patients (ID 11SH, 09P6). On the procedure: The time course of the reduction in GSPT1 by Compound D also was studied for up to 48 hours. The progressive degradation of GSPT1 over the course of 1 to 20 hours was evident in the presence of all concentrations of Compound D studied from 3 to 300 nM in HNT-34, HL-60, and ML-2 cells, with little GSPT1 remaining by 20 hours at 100 or 300 nM Compound D in HNT-34 or HL-60 cells (FIG. 34 and FIG. 35C). Time-dependent reduction in GSPT1 was also observed in KG-1 and OCI-AML2 cells at 3 to 1000 nM Compound D, with little GSPT1 remaining in KG-1 cells at 100 to 300 nM at 24 hours or in OCI-AML2 cells at 300 and 1000 nM at 24 hours (FIG. 35D). Loss of GSPT1 occurred more slowly in Kasumi-1, AML-193, and […] cells. […] A positive association (r^2=0.50; […]

Where two headings read alike, the source gives them in different places.

One may read the IC50 as the point on the concentration scale where inhibition reaches its midpoint. As a reminder, the EC50 is the concentration at which the effect is half-maximal.

GSPT1, sequence (P15170 1-637 isoform P15170-3): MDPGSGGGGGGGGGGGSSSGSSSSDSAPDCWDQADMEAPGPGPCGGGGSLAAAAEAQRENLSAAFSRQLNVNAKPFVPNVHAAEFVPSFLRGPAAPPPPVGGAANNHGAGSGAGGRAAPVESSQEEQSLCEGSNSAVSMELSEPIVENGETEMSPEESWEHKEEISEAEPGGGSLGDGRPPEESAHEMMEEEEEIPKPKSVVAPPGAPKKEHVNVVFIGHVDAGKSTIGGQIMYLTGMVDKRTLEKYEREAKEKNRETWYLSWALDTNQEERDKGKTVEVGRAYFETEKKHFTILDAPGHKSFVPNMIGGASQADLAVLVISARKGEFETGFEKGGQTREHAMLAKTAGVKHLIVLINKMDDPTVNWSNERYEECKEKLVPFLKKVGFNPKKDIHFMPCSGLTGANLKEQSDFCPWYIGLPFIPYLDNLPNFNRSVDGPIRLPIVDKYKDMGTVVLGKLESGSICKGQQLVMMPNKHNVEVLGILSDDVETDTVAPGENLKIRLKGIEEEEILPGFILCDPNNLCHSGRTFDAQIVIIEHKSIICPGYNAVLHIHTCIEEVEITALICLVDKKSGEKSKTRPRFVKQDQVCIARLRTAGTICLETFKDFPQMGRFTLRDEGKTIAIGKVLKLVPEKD
GSPT1, sequence (Q96SW2 whole entry): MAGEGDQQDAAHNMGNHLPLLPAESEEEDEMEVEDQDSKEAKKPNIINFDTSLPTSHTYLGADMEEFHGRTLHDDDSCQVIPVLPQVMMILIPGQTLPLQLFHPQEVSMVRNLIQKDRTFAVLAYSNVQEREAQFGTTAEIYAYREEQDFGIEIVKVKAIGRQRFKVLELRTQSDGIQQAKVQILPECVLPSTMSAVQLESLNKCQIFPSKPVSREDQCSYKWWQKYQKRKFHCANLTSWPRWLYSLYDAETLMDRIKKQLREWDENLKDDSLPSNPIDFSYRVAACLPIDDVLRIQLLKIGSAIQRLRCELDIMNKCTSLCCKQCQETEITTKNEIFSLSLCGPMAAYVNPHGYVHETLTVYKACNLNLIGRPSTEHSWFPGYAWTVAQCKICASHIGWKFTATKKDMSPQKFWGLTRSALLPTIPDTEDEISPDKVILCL
GSPT1, sequence (Q16531 whole entry partner): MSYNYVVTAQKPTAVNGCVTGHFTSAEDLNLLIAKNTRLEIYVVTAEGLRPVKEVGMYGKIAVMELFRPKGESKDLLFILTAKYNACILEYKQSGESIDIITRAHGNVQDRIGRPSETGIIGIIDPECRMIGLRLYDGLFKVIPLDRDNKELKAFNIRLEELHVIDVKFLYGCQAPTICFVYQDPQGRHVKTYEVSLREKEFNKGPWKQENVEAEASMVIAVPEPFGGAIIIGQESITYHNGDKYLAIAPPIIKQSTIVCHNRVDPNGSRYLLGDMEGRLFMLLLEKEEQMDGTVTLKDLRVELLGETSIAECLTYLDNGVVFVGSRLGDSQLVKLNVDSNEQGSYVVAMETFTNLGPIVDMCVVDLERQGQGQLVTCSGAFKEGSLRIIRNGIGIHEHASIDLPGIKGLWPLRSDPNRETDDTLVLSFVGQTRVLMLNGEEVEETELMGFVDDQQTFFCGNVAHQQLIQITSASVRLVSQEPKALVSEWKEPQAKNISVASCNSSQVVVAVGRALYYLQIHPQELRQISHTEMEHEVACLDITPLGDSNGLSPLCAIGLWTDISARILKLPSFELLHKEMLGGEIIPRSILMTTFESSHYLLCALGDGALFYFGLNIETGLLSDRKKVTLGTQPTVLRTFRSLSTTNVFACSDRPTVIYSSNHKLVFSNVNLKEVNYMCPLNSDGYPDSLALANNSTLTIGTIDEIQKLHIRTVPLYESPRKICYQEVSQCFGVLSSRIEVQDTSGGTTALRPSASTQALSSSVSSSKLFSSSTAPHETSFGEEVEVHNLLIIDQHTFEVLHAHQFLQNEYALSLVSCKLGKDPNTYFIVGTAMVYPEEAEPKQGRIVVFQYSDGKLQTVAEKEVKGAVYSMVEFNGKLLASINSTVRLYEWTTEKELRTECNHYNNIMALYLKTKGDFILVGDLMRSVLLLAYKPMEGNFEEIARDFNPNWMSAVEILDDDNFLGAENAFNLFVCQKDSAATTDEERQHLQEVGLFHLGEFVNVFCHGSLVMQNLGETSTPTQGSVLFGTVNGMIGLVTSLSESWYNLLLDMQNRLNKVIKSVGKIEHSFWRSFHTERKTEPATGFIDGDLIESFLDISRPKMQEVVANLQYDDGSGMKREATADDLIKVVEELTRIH
IKZF1, sequence (Q13422 whole entry): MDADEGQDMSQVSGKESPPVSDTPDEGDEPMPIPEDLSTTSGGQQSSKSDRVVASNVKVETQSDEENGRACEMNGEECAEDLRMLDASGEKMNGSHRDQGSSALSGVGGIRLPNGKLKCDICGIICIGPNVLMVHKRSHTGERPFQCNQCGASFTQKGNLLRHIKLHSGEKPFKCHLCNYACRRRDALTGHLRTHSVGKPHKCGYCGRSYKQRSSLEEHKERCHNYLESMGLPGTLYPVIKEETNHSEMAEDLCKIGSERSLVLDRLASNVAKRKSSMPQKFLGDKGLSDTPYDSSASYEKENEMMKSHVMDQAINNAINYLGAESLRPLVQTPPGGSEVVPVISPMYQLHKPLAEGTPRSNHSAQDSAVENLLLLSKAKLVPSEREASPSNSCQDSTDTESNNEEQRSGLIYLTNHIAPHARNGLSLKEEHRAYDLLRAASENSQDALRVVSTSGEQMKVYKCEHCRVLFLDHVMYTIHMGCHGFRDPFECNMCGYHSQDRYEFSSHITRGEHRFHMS
IKZF1, sequence (Q96SW2 whole entry): as the sequence (Q96SW2 whole entry) above
IKZF1, sequence (Q16531 whole entry partner): as the sequence (Q16531 whole entry partner) above
Description for PARP: The time course of GSPT1 degradation was monitored by western blot analysis of HNT-34 AML cells and normal PBMCs (FIGS. 32A-32D) following incubation with Compound D (1, 10, and 100 nM).

In the case of `O=C1CCC(N2Cc3cc(CNC(=O)C(F)(F)c4ccc(Cl)cc4)ccc3C2=O)C(=O)N1` (stereo not drawn) [Compound D, 2-(4-chlorophenyl)-N-((2-(2,6-dioxopiperidin-3-yl)-1-oxoisoindolin-5-yl)methyl)-2,2-difluoroacetamide], the IC50 with HNT-34 cells (HNT-34, read-out: anti-proliferative activity IC50) came out at 3 nM; in the assay with HNT-34 cells (HNT-34, 72-hour CTG assay, read-out: IC50 of the anti-proliferative effect) it was 3 nM; with OCI-AML2 cells, 57 nM. Besides, the EC50 in the assay with KASUMI-1 cells (Homo sapiens, read-out: Compound D-induced Apoptosis EC50, Kasumi-1, 96 hr) was found to be 55 nM. Moreover, the “Average Percent Increase in Apoptosis at 123 nM Compound D, Apoptosis (12 hr)” value in the assay with KASUMI-1 cells (Kasumi-1, 123 nM, 12 hr) is 1%. Besides, in the assay with KASUMI-1 cells (Kasumi-1, 123 nM, 24 hr), the “Average Percent Increase in Apoptosis at 123 nM Compound D, Apoptosis (24 hr)” value came to 3%. The “Average Percent Increase in Apoptosis at 123 nM Compound D, Apoptosis (48 hr)” value in the assay on KASUMI-1 cells (Kasumi-1, 123 nM, 48 hr) worked out at 18%. Moreover, the “time of induction of ATF4 protein” value with ATF4 worked out at 8 h. Also, the “time of PARP cleavage” value in the assay on PARP is 24 h. The “ATF4 pathway and apoptosis” value was “blocked” in assay [1] (GCN2 knockout U937 cells); “induced the ATF4 pathway and apoptosis” in assay [1] (wild type U937 cells). The apoptosis entry in assay [1] (wild type and PERK knockout U937 cells, 2 μM) is on record as “induced apoptosis”. In addition, the “effect on IKZF1 level” value on IKZF1 is recorded as “induced degradation”. Moreover, the “Percent Reduction at 100 nM Compound D GSPTI (8 hr)” value on GSPT1 (Kasumi-1, 100 nM, 8 hr) was 64%. The GSPT1 reduction on GSPT1 (Kasumi-1, 300 nM Compound D, 8 hours) stood at 51%.

The record behind these values is US12474342B2, “Methods for treating cancer and the use of biomarkers as a predictor of clinical sensitivity to therapies” (CELGENE CORPORATION, priority 2016, dated 2025).
